The values that follow come from ChEMBL document CHEMBL5113460, “Discovery of dual inhibitors of topoisomerase I and Cyclooxygenase-2 for colon cancer therapy” (Eur J Med Chem, 2022).

One test concerns HT-29. The test can be described thus: Antitumor activity against human HT-29 cells assessed as inhibition of cell proliferation incubated for 72 hrs by MTT assay. The conditions noted are these: HT-29, 72 h. Type of test: functional, cell-based.
Test [1] addresses T1, DNA topoisomerase 1 (Homo sapiens) (UniProt P11387).
T1 sequence (whole entry): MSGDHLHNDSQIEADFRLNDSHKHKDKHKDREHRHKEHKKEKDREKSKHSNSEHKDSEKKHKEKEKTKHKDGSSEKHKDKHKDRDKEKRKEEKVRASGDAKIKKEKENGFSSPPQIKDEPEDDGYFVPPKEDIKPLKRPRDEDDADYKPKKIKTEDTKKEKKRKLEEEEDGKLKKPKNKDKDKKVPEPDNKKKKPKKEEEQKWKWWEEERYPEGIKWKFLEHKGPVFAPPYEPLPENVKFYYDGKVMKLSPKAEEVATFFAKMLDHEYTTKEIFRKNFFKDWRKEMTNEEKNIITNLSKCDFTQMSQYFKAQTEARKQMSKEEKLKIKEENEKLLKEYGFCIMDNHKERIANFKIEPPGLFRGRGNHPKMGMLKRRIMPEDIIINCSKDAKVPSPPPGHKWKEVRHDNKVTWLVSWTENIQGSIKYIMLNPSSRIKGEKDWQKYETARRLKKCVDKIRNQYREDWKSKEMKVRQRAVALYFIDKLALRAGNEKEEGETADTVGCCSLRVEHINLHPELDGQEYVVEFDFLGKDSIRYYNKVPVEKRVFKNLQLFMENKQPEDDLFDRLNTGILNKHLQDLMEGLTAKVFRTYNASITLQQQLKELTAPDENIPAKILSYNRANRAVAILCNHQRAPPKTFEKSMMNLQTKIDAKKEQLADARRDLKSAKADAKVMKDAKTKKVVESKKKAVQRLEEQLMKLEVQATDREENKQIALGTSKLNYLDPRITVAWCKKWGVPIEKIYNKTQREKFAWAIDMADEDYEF
Nature of the test: Inhibition of topoisomerase 1 (unknown origin) assessed as relaxation of supercoiled plasmid pBR322 DNA at 10 uM incubated for 45 mins by ethidium bromide staining based agarose gel electrophoresis.

The subject of the next test is LoVo. Nature of the test: Antitumor activity against human LoVo cells assessed as inhibition of cell proliferation incubated for 72 hrs by MTT assay. In kind it is functional, cell-based. In general terms: Formazan colour is commonly taken as a measure of viable cells.
For a further test, the system named is RKO. Nature of the test: Antitumor activity against human RKO cells assessed as inhibition of cell proliferation incubated for 72 hrs by MTT assay. Type of test: functional, cell-based.
The subject of a further test is SW480. Nature of the test: Antitumor activity against human SW480 cells assessed as inhibition of cell proliferation incubated for 72 hrs by MTT assay. Type of test: functional, cell-based. The conditions noted are these: SW480, 72 h.
The target of test [2] is Prostaglandin G/H synthase 2 (Homo sapiens) (UniProt P35354). The test can be described thus: Inhibition of COX-2 (unknown origin) at 30 uM.
For a further test, the system named is HCT-116. The test can be described thus: Antitumor activity against human HCT-116 cells assessed as inhibition of cell proliferation incubated for 72 hrs by MTT assay. The conditions noted are these: HCT-116, 72 h. In kind it is functional, cell-based.
Test [3] deals with Prostaglandin G/H synthase 2 (Homo sapiens) (UniProt P35354). The test can be described thus: Inhibition of COX-2 (unknown origin) at 3 uM.
In test [4] the target is T1, DNA topoisomerase 1 (Homo sapiens). Nature of the test: Inhibition of topoisomerase 1 (unknown origin) assessed as relaxation of supercoiled plasmid pBR322 DNA at 1 uM incubated for 45 mins by ethidium bromide staining based agarose gel electrophoresis.

Prostaglandin G/H synthase 2 (Homo sapiens), sequence (P35354 whole entry, looked up): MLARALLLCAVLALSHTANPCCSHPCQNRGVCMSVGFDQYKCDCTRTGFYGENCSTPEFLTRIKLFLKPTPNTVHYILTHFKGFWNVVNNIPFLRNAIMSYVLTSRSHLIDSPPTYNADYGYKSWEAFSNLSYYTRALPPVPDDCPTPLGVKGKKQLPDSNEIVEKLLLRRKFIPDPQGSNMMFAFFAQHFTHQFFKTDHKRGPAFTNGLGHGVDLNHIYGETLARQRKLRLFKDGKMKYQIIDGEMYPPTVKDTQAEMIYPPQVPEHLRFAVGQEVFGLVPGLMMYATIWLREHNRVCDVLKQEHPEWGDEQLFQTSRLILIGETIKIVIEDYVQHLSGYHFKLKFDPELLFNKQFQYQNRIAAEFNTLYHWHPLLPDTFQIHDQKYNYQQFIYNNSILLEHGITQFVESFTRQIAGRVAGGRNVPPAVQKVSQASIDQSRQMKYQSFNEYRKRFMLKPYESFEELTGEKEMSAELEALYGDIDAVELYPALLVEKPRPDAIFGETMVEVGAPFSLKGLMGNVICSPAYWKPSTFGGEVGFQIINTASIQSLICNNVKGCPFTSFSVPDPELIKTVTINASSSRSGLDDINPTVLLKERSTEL

With `Cc1c(Cl)cccc1Nc1ccccc1C(=O)Nc1ccc(C(N)=O)cc1`, the IC50 (commonly the concentration at which inhibition is half-maximal) is 26.1 µM with HT-29; 22.8 µM with LoVo; > 30 µM with RKO; > 30 µM in the test on SW480; 17.5 µM with HCT-116. The inhibition (usually the change of the read-out against control, counted positive when it falls) in test [1] is 19.6%; in test [2], 3.53%.

`CCCCN1CCN(c2ccc(NC(=O)c3ccccc3Nc3cccc(Cl)c3C)cc2)CC1`: the IC50 is 9.83 µM in the test on HT-29; > 30 µM with LoVo; 15.2 µM in the test on RKO; 18.3 µM in the test with SW480; 13.2 µM with HCT-116. Besides, the inhibition in test [1] was determined as 53.2%; in [3] it was 42.2%; in test [2] it was 58.3%; in test [4] it was 27.6%.

With `Cc1c(Cl)cccc1Nc1ccccc1C(=O)Nc1ccc(N2CCOCC2)cc1`, the concentration for half-maximal inhibition (IC50) in the test with HT-29 was 6.4 µM; in the test with LoVo, > 30 µM; with RKO, > 30 µM; with SW480, > 30 µM; in the test with HCT-116 it was > 30 µM. In addition, the inhibition turned out to be 14.5% in test [1], 41.6% in [3] and 42.9% in [2].

Turning to `Cc1c(Cl)cccc1Nc1ccccc1C(=O)Nc1ccc(N2CCN(c3ccccc3)CC2)cc1`, the IC50 in the test with HT-29, in the test on LoVo, in the test on RKO, in the test with SW480 and in the test on HCT-116 was > 30 µM in each case. Further, the inhibition in test [1] is 13.9%; in [3], 27.6%; in [2] it was 37.8%; in test [4], 12.6%.

`CC(=O)N1CCN(c2ccc(NC(=O)c3ccccc3Nc3cccc(Cl)c3C)cc2)CC1`: the IC50 with HT-29, in the test on LoVo, in the test on RKO, with SW480 and in the test with HCT-116 was > 30 µM each time. In addition, the inhibition in test [1] was determined as 29%; in test [3], 37.6%; in test [2], 60.3%.

With `COCC(=O)Oc1ccc(NC(=O)c2ccccc2Nc2cccc(Cl)c2C)cc1`, the IC50 with HT-29 was 18.7 µM; in the test on LoVo, > 30 µM; in the test on RKO it was 14 µM; with SW480, > 30 µM; with HCT-116, 12.6 µM. Moreover, the inhibition was determined as 16.6% in test [1], 25.2% in test [3] and 47.7% in test [2].

As to `Cc1c(Cl)cccc1Nc1ccccc1C(=O)Nc1ccc(N2CCN(C)CC2)cc1`, the IC50 with HT-29 was 2.09 µM; in the test on LoVo, 5 µM; in the test with RKO it was 6.61 µM; in the test on SW480 it was 11.3 µM; with HCT-116, 7.58 µM. Moreover, the inhibition in test [1] amounted to 67.8%; in test [3], 54.4%; in test [2], 100%; in test [4], 25.4%.

For the compound `Cc1c(Cl)cccc1Nc1ccccc1C(=O)Nc1ccc(OC(=O)CO)cc1`, the IC50 in the test on HT-29 was 13.6 µM; with LoVo it was > 30 µM; in the test with RKO, 14.1 µM; in the test on SW480, > 30 µM; with HCT-116 it was 13.5 µM. Moreover, the inhibition in [1] amounted to 45.1%; in test [3], 24.9%; in [2], 97.9%.

Turning to `Cc1c(Cl)cccc1Nc1ccccc1C(=O)Nc1ccc(NCCO)cc1`, the IC50 with HT-29 was 12.9 µM; in the test on LoVo, > 30 µM; in the test on RKO, 29 µM; in the test on SW480, > 30 µM; in the test on HCT-116 it was 13.9 µM. Moreover, the results for the inhibition in test [1], in test [3] and in test [2] were 40.9%, 69% and 100%, respectively.

As to `Cc1c(Cl)cccc1Nc1ccccc1C(=O)Nc1ccc(N2CCN(C(C)C)CC2)cc1`, the concentration for half-maximal inhibition (IC50) stood at 2.97 µM in the test on HT-29; 8.29 µM in the test with LoVo; 10.8 µM in the test on RKO; 10.3 µM in the test on SW480; 12 µM with HCT-116. In addition, the inhibition worked out at 54.6% in [1], 30.1% in test [3], 83.7% in [2] and 37.5% in [4].

`Cc1c(Cl)cccc1Nc1ccccc1C(=O)Nc1ccc(S(N)(=O)=O)cc1`: the IC50 in the test on HT-29 was found to be 28.8 µM; with LoVo it was 13.3 µM; with RKO it was 13.7 µM; in the test with SW480 it was 14.7 µM; in the test with HCT-116, 7.7 µM. The inhibition in test [1] worked out at 24.4%; in test [3], 42%; in test [2], 71.3%; in test [4], 19.8%.

On to `Cc1c(Cl)cccc1Nc1ccccc1C(=O)Nc1ccc(OCCO)cc1`, for which the concentration for half-maximal inhibition (IC50) in the test on HT-29 is 6.83 µM; in the test with LoVo, 24.7 µM; with RKO it was 16.7 µM; in the test on SW480 it was > 30 µM; with HCT-116, 9.65 µM. For the same compound, the inhibition in test [1] came out at 46.2%; in test [3], 22.6%; in [2], 47.9%.

In the case of `Cc1c(Cl)cccc1Nc1ccccc1C(=O)Nc1ccc(N2CCN(C(=O)OC(C)(C)C)CC2)cc1`, the half-inhibitory concentration (IC50) is 11.9 µM with HT-29; > 30 µM in the test with LoVo; > 30 µM with RKO; > 30 µM with SW480; > 30 µM in the test on HCT-116. Also, the values for the inhibition in test [1], in [3] and in [2] were 20.4%, 18.9% and 41.9%, respectively.

As to `COCCOc1ccc(NC(=O)c2ccccc2Nc2cccc(Cl)c2C)cc1`, the IC50 was 7.48 µM in the test on HT-29; 14.7 µM with LoVo; 15.4 µM in the test with RKO; > 30 µM in the test on SW480; > 30 µM in the test on HCT-116. Besides, the inhibition worked out at 29.3% in test [1], 31.7% in test [3], 36.5% in test [2] and 25% in [4].

Consider `Cc1c(Cl)cccc1Nc1ccccc1C(=O)Nc1ccc(N2CCN(S(C)(=O)=O)CC2)cc1`, for which the IC50 with HT-29, in the test on LoVo, in the test on RKO, with SW480 and in the test with HCT-116 was > 30 µM each time. Further, the inhibition is 19.7% in [1], 24.5% in [3], 34.2% in test [2] and 19.5% in test [4].

In the case of `CCN1CCN(c2ccc(NC(=O)c3ccccc3Nc3cccc(Cl)c3C)cc2)CC1`, the IC50 came out at 2.99 µM in the test on HT-29; 9.51 µM in the test on LoVo; 10 µM in the test with RKO; 15.8 µM in the test on SW480; 11.5 µM in the test with HCT-116. For the same compound, the inhibition was 71.9% in [1], 37.1% in test [3] and 100% in test [2].

In the case of `CCCN1CCN(c2ccc(NC(=O)c3ccccc3Nc3cccc(Cl)c3C)cc2)CC1`, the IC50 in the test on HT-29 is 6.35 µM; in the test on LoVo it was 13.5 µM; with RKO it was 10.1 µM; in the test on SW480, 16.9 µM; with HCT-116 it was 13.4 µM. The inhibition was found to be 63.1% in test [1], 36.5% in test [3] and 81% in [2].

On to `Cc1c(Cl)cccc1Nc1ccccc1C(=O)Nc1ccc(OCCN)cc1`, for which the IC50 in the test on HT-29 is 12 µM; in the test with LoVo, 12.9 µM; in the test on RKO it was 9.22 µM; in the test with SW480 it was 25.3 µM; in the test with HCT-116 it was 6.41 µM. In addition, the inhibition in test [1] came to 63.8%; in test [3] it was 28.7%; in [2], 43.2%; in test [4], 41.3%.

Take `O=c1[nH]cc(F)c(=O)[nH]1` [FLUOROURACIL]: the IC50 was 12.2 µM with HT-29, 8.35 µM in the test on LoVo, > 30 µM with SW480 and 7.77 µM in the test with HCT-116.
